The values that follow come from PubChem BioAssay (NCI).

Test in all cases: NCI-60 cell line screen, 48 h
For assay [1], the system named is PC-3 prostate.
The test system of assay [2] is SNB-19 CNS.
Assay [3] concerns BT-549 breast.
Assay [4] deals with NCI/ADR-RES ovarian.
Assay [5] concerns UO-31 renal.
Assay [6] relates to UACC-62 melanoma.
Assay [7] has as its system HCT-116 colon.
Assay [8] deals with HS 578T breast.
The subject of assay [9] is K-562 leukemia.
The subject of assay [10] is HCC-2998 colon.
For assay [11], the system named is SK-MEL-28 melanoma.
Assay [12] relates to UACC-257 melanoma.
Assay [13] deals with SN12C renal.
Assay [14] concerns SK-MEL-2 melanoma.
Assay [15] concerns MOLT-4 leukemia.
The test system of assay [16] is SF-539 CNS.
Assay [17] relates to IGROV1 ovarian.
Assay [18] has as its system MDA-MB-231 breast.
For assay [19], the system named is MDA-N.
Assay [20] relates to HOP-62 NSCLC.

Molecules are shown by their SMILES.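 These data come from cells grown in 96-well plates and exposed to compound for 48 hours at five concentrations. TGI: concentration producing complete growth inhibition.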

As to `CN(C)CCCCN1c2ccccc2Sc2ccc(C(=O)c3ccccc3)cc21`, the TGI in assay [1] worked out at 6.4 µM; in [2], 12 µM; in assay [3], 18.8 µM; in [4], 11.1 µM; in assay [5], 10 µM; in assay [6], 6.39 µM. Further, the TGI in assay [7] worked out at 4.9 µM; in assay [8], 9.69 µM; in assay [9], 3.36 µM; in assay [10], 3.97 µM; in [11] it was 3.72 µM; in assay [12] it was 3.76 µM. The TGI in assay [13] turned out to be 9.84 µM; in assay [14] it was 6.59 µM; in assay [15], 6.31 µM; in [16] it was 6.59 µM; in assay [17], 7.89 µM; in assay [18], 5.2 µM. The TGI was 6.74 µM in assay [19] and 6.99 µM in assay [20].
Turning to `Cc1ccc(NC2=N/C(=C/c3ccccc3)C(Cl)=N2)cc1`, the TGI in [1], in assay [2], in [3], in assay [4], in assay [5] and in [6] was greater than 100 µM each time. The TGI in [7], in assay [8], in assay [9], in assay [10], in assay [11] and in assay [12] was greater than 100 µM throughout. In addition, the TGI in assay [13], in assay [14], in assay [15], in [16], in [17] and in assay [18] was greater than 100 µM throughout. In addition, the TGI in assay [19] and in [20] was greater than 100 µM in each case.
Regarding `CC(=N\N=C\c1ccccn1)/C(C)=N/N=C(C)/C(C)=N/N=C/c1ccccn1`, the TGI in assay [1], in [2], in assay [3], in [4], in [5] and in assay [7] was greater than 100 µM throughout. Besides, the TGI in assay [8], in assay [10], in assay [11], in assay [12], in [13] and in [14] was greater than 100 µM each time. Also, the TGI in [16], in assay [17], in assay [18], in [19] and in assay [20] was greater than 100 µM each time.
As to `CSc1nc(SC)c2ncn(C3CC(Oc4ccc(C)cc4)C(COc4ccc(C)cc4)O3)c2n1` (stereo not given), the TGI in assay [1] is greater than 100 µM; in [2] it was greater than 100 µM; in assay [3], greater than 100 µM; in assay [4], greater than 100 µM; in [5], 7.61 µM; in [6], greater than 100 µM. The TGI in assay [7], in assay [8], in assay [10], in [11], in assay [12] and in [13] was greater than 100 µM each time. For the same compound, the TGI in assay [14], in [16], in assay [17], in assay [18], in assay [19] and in assay [20] was greater than 100 µM in each case.
As for `O=[N+]([O-])c1cc(Cl)cc2cc(Br)cnc12`, the TGI in assay [1], in [2], in assay [3], in [4], in assay [5] and in assay [6] was greater than 31.6 µM in each case. The TGI in assay [7] is greater than 31.6 µM; in assay [8] it was 28.3 µM; in assay [9], greater than 31.6 µM; in assay [10], greater than 31.6 µM; in assay [11], greater than 31.6 µM; in assay [12], greater than 31.6 µM. Also, the TGI in assay [13] is greater than 31.6 µM; in assay [14], greater than 100 µM; in [15] it was greater than 31.6 µM; in assay [16] it was greater than 31.6 µM; in assay [17], greater than 23.7 µM; in assay [18], greater than 31.6 µM. Moreover, the TGI in [19] and in assay [20] was greater than 31.6 µM each time.
As for `O=C1C(Cl)C(c2cc3cc(Br)ccc3nc2Cl)N1c1ccc(Cl)cc1` (stereo not given), the TGI in assay [1] is greater than 25 µM; in assay [2], greater than 25 µM; in [3] it was 11.6 µM; in [4], 16.7 µM; in assay [5] it was 3.28 µM; in assay [6], 10.2 µM. Also, the TGI in assay [7] was 12.5 µM; in assay [8], greater than 25 µM; in [9], 19.8 µM; in [10] it was 8.04 µM; in [11] it was greater than 25 µM; in assay [12], 12.6 µM. Moreover, the TGI in assay [13] turned out to be 8.8 µM; in assay [14], 10.4 µM; in assay [15] it was 10.6 µM; in assay [16] it was 9.41 µM; in [17], 7.17 µM; in assay [18] it was 7.35 µM. In addition, the results for the TGI in assay [19] and in assay [20] were 15.9 µM and greater than 25 µM, respectively.
`Cc1ccc2c(=O)cc(-c3ccsc3)[nH]c2n1`: the TGI in assay [1] is greater than 61.9 µM; in [2], 86.7 µM; in assay [3], greater than 100 µM; in assay [4], greater than 20.5 µM; in assay [5], 9.47 µM; in [6], greater than 100 µM. Moreover, the TGI in [7] is greater than 75.6 µM; in assay [8] it was 26.2 µM; in assay [9], greater than 100 µM; in assay [10], 42.9 µM; in assay [11], greater than 100 µM; in assay [12] it was greater than 100 µM. For the same compound, the TGI in [13] was greater than 86.2 µM; in assay [14], greater than 30.6 µM; in [15], greater than 30.7 µM; in assay [16], 33.2 µM; in [17], greater than 100 µM; in assay [18], greater than 87.6 µM. Also, the values for the TGI in assay [19] and in assay [20] were 2.09 µM and greater than 100 µM, respectively.
